In assay [1] the test system is vascular cell adhesion molecule (VCAM). The assay can be described thus: VCAM expression on TNF-stimulated HUVEC (flow cytometry). It counts as cell-based, human. The text has this:
This example illustrates an investigation of inhibition of vascular cell adhesion molecule (VCAM) expression on HUVEC by compound no. 58. VCAM expression by endothelial cells is an early event in the pathogenesis of atherogenesis and multiple sclerosis, among other various autoimmune diseases. Figure 23 is a series of frequency histograms obtained in this exemplary assay. […] In the absence of TNF, VCAM expression on HUVEC was at a very low level. […] The average increase in cell fluorescence was approximately 10-fold. The bottom panel is a frequency histogram of TNF-stimulated cells in the presence of compound no 58. […] 58.
Assay results reported in figures 63A and 63B, illustrate that inventive compound no. […] HUVEC were stimulated with TNFα (20 ng/ml) for 5 hours and stained using fluorescent antibodies to ICAM-1 or VCAM-1. Cell surface expression was analyzed by flow cytometry. All values were normalized to the peak mean fluorescence of the positive control (=100%). Average levels of induction using TNFα- stimulation were 20-fold higher for ICAM-1 and over 50-fold higher for VCAM-1 from that of nonstimulated controls, as shown in figures 63 and 63B.
Figures 73A and 73B illustrate inhibition by inventive compound no. 58 of VCAM or ICAM expression, respectively, in HUVEC activated by TNF. Cells were stimulated for 8 hours in the presence or absence of inventive compounds and stained with fluorescent antibodies to VCAM or ICAM and analyzed by flow cytometry.
On the technique in general: A flow cytometer gives signals particle by particle.

The test system of assay [2] is THP-1 cell adhesion to IL-1-activated HUVEC. Description: THP-1 cell adhesion to activated HUVEC. Type of assay: cell-based, human. On the procedure: This example illustrates inhibitive activity of compounds nos. 50 and 57 on THP-1 cell adhesion to IL-1-activated HUVEC. In an investigative assay, HUVEC were stimulated with IL-1 (10 ng/ml), both in the absence and presence of varying concentrations of drugs for 8 hours in a 96-well microtiter plate. In the wellplate, human monocytic leukemia cell line THP-1 cells were added at 50,000 cells per well. The THP-1 cells were pre-incubated with BCECF, a fluorescence dye that can be used to measure cell number using a fluorescence plate reader. After 10 minutes at 37 °C, the microtiter plate was inverted and spun at 900 rpm. The remaining adhering THP-1 cells were then analyzed.
Inventive compound no. […] HUVEC were stimulated with 20 ng/ml IL-1β or 15 ng/ml TNFα for 6 hours. Fluorescence labeled (BCECF-AM) THP-1 cells were allowed to adhere to the HUVEC for 20 minutes, washed once and the amount of fluorescence remaining analyzed on a fluorescence plate reader. The results, reported in figures 62A and 62B (TNFα or IL-1β, respectively), show inhibition of THP-1 adhesion to HUVEC.
Figures 72A and 72B illustrate that inventive compound no. 58 inhibited THP-1 cell adhesion to either TNF or IL-1-stimulated HUVEC, respectively. Procedurally, HUVEC were stimulated with TNF or IL-1 for 8 hours and THP-1 cells added for 20 minutes. The HUVEC were then washed and analyzed for adherence. Inventive compound no. 58 inhibited adhesion of THP-1 cells to HUVEC with an IC50 of approximately 1 µM for both TNF and IL-1.

Assay [3] has as its system Balb/3T3 cells. Description: PDGF-induced proliferation of Balb/3T3 cells. Type of assay: cell-based, murine. On the procedure: Balb/3T3 cells respond vigorously to PDGF stimulation, and are useful in vitro models for further study of PDGF-induced proliferation. Disregulated PDGF-proliferative response has been linked to a variety of diseases, including, e.g., restenosis, atherosclerosis, fibrosis, and tumor cell angiogenesis. Cells were plated in low serum-containing medium for 24 hours prior to stimulation with various concentrations of inventive compound no. 45. PDGF-BB was added at constant 10 µM concentrations. Tritiated thymidine was added and cells harvested for scintillation counting 24 hours later. Figure 15 illustrates a dose response curve from this assay, including an IC50 value of approximately 0.08 µM, exemplifying inhibitory activity of the tested compound.
In another investigation similar to the Balb/3T3 proliferation assay of Example 32, IC50 and ID50 values for inventive compounds nos. 70, 45, 59 and 58 were determined. LD50 values were determined using a cytotoxicity assay, as in Example 32. In these assays, Balb/3T3 cells, stimulated with PDGF and treated with one of the above inventive compounds in a manner identical to the tritiated thymidine procedure above, were incubated instead with a viable dye BCECF, a fluorescent dye. Fluorescence was measured using a fluorescent plate reader. […] Figure 17 illustrates assay results by comparing […] value against LD50 values for the inventive compounds tested. Most compounds tested were non-cytotoxic yet were significant inhibitors of proliferation.
Inventive compounds nos. 77,7 and 78 were added at various concentrations one hour prior to PDGF stimulation. PDGF-BB was added at a constant 10 µM concentrations along with tritiated thymidine. The cells were allowed to incubate for one day, following addition of PDGF and tritiated thymidine. 24 Hours later, the cells were harvested and counted by liquid scintillation counting. Results for compounds nos.77, 7 and 78 are shown in figures 26A, 26B and 26C, respectively. Background counts were approximately 1% of control levels.
Results obtained for compound no. 50 in the PDGF-induced proliferation of Balb/3T3 cells (Example 32), reported in figure 28, illustrate the inhibitive properties of this compound on proliferation induced by PDGF, representing significant inhibition at concentrations as low as 2 µM. […] 50, are capable of reducing tumor cell growth by blocking oncogene-induced events.
Figure 66 reports that inventive compound no. 45 inhibited PDGF-induced murine BALB/3T3 proliferation. Procedurally, cells were rested overnight in 0.2% serum and stimulated with 25 ng/ml PDGF. Compound no. 45 was added 1 hour prior to stimulation. Cells were pulsed with ^3H-TdR 24 hours later and harvested for scintillation counting 4 hours later.
Figures 66A and 66B are a dose response and cytoxicity curves, respectively, for inhibition of proliferation in Balb/3T3 cells by inventive compound no. 58. In the assay protocol, cells were starved overnight in 0.5% serum containing medium, followed by stimulation with 20 ng/ml PDGF for 24 hours. The cells were labeled with ^3H-TdR for 4 hours and harvested and counted by scintillation. Figure 66B illustrates that inventive compound no.
Figure 68 illustrates an effect of the delayed addition of inventive compound no. 58 to Balb/3T3 proliferation in response to PDGF-BB. Cells were stimulated with PDGF (20 ng/ml) and inventive compound no. 58 added either simultaneous with PDGF (0) or at various times after addition of PDGF, up to 6 hours later. At 24 hours, the cells were pulsed with ^3H-TdR and counted by scintillation four hours later. […] 58 was added as late as 20 hours after PDGF.
Figure 69 illustrates that inventive compound no. […] In the assay protocol, cells were serum starved for 24 hours before adding either 20 ng/ml PDGF or 10% serum. The cells were pulsed with ^3HTdR 24 hours later. Inventive compound no.

These results are taken from patent publication EP0719267B1, “SECOND MESSENGER CELL SIGNALING INHIBITORS” (CELL THERAPEUTICS, INC., priority 1993, dated 1994).

A word on the IC50: it is the midpoint of a concentration-inhibition curve.

On to `CCCCCCCCNCC(O)CCCCCCCCCn1c(=O)c2c(ncn2C)n(C)c1=O` (stereo not drawn) [compound no. 45], for which the “VCAM-1 cell surface expression” value in assay [1] (TNFα (20 ng/ml), 5 hours) is “inhibited adhesion receptor expression on HUVEC”. Further, the “inhibition of THP-1 adhesion” value in assay [2] (20 ng/ml IL-1β or 15 ng/ml TNFα, 6 hours) is on record as “inhibited adhesion of monocytic leukemia cells (THP-1) to IL-1β or TNFα-activated HUVEC”. In assay [3] (Mus musculus, BALB/3T3, PDGF-BB, low serum 24 hours), the IC50 was roughly 80 nM.

Regarding `CCCCCCCCCCCCNCC(O)CCCCCCCCCn1c(=O)c2c(ncn2C)n(C)c1=O` (stereo not drawn) [compound no. 50, 1-(11-Dodecylamino-10-hydroxyundecyl)-3,7-dmethylxanthine], the “inhibition of THP-1 adhesion” value in assay [2] (IL-1 (10 ng/ml), 8 hours) is “significantly inhibited THP-1 adhesion, even at low concentratations”. In addition, the minimal effective concentration in assay [3] (Mus musculus, BALB/3T3, fig. 28, read-out: concentrations giving significant inhibition) was no less than 2 µM.

For `COc1cc(CNCC(O)CCCCCCCCCn2c(=O)c3c(ncn3C)n(C)c2=O)cc(OC)c1OC` (stereo not drawn) [compound no. 58, 1-[11-(3,4,5-Trimethoxybenzylamino)-10-hydroxyundecyl]-3,7-dimethylxanthine], the “factor of reduction of mean fluorescence (VCAM expression)” value in assay [1] (TNF 6 hours, versus TNF-stimulated cells without compound) is listed as 8. In assay [1] (TNF, 8 hours), the VCAM expression result is reported as “inhibition”. For the same compound, the IC50 in assay [2] (Homo sapiens, TNF-stimulated HUVEC, 8 hours) was roughly 1000 nM; in assay [3] (Mus musculus, BALB/3T3, 20 ng/ml PDGF, 24 hours) it was 200 to 500 nM. The “PDGF-induced versus serum-induced proliferation” value in assay [3] (20 ng/ml PDGF or 10% serum) is given as “inhibited PDGF- induced proliferation in Balb/3T3 cells to a greater extent than serum-induced proliferation”. Further, in assay [3] (10% serum), the “effect on serum-induced proliferation” value is on record as “did not have a significant effect on serum-induced Balb/3T3 proliferation”. Further, the “inhibition with delayed addition” value in assay [3] (added as late as 20 hours after PDGF) is given as “nearly complete inhibition in proliferation”.
